Measurements from paper PMC8205491, “Tetrahydroxanthohumol, a xanthohumol derivative, attenuates high-fat diet-induced hepatic steatosis by antagonizing PPARγ” (eLife, 2021).

What follows are compounds tested against T1, PPARγ (Homo sapiens, UniProt P37231) (assay: LanthaScreen TR-FRET competitive binding assay (displacement of Fluormone Pan-PPAR Green)).
T1 construct: gene PPARG
T1 sequence (P37231 235-505 limits assumed): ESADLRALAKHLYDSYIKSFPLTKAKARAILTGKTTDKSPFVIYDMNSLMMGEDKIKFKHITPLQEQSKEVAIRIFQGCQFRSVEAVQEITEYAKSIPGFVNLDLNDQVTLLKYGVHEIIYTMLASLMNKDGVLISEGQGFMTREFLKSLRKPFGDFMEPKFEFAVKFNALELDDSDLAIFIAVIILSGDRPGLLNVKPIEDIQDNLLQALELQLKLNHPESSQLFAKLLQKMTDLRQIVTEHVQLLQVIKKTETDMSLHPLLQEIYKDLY

IC50 [nM] | SMILES
1970 | COc1cc(O)c(CC=C(C)C)c(O)c1C(=O)/C=C/c1ccc(O)cc1 [XN, Xanthohumol]
1380 | COc1cc(O)c(CCC(C)C)c(O)c1C(=O)CCc1ccc(O)cc1 [TXN, Tetrahydroxanthohumol]

SMILES | IC50 [nM]
CCCCCCCC/C=C\CCCCCCCC(=O)O [Oleic acid] | 16600
